Test results published in the METLIN SMRT retention time set (Domingo-Almenara et al. 2019).

test: gradient 5% acetonitrile 3 min, to 50% in 2 min, to 85% in 15 min, held 3 min, 100 µL/min; conditions: column: Zorbax Extend-C18 2.1 x 50 mm; eluents: water / acetonitrile, 0.1% formic acid
How it was run: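 Values are retention times taken from adduct peaks that software picked and an analyst inspected. The pure standards were run as mixtures of ~100 molecules on HPLC linked to a quadrupole time-of-flight mass spectrometer, in positive and negative ionization mode. A Zorbax Extend-C18 column (2.1 × 50 mm, 1.8 μm) was used at 100 μL/min with water and acetonitrile, each including 0.1% formic acid.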

Compared with `COc1ccc(-c2cc(C(=O)N3CCCC3c3cc(C)on3)on2)cc1` (centres undefined), `Cc1nn(-c2nc(-c3ccc(Cl)cc3)cs2)c(C)c1CC(=O)N1CCCC1` is higher in RP-LC retention time: 865 s for the first, 1120 s for the second.

First: CC(=O)c1cccc(NC(=O)Cn2cc(-c3ccccc3)c3ncn(C4CC4)c(=O)c32)c1
Second: COc1ccc(NC(=O)Cn2ccc3ccn(Cc4ccccc4)c3c2=O)cc1OC
The RP-LC retention time of the first is higher: 877 s for the first, 859 s for the second.

Compared with `O=C(CCCc1nc(-c2ccc(Cl)cc2)no1)Nc1nc(-c2ccccc2)cs1`, `O=C(Cc1nc(-c2ccccn2)n[nH]1)Nc1cccc(Cl)c1` is lower in RP-LC retention time: 1170 s for the first, 673 s for the second.

First: O=C(c1csc(Nc2ccc(OC(F)F)cc2)n1)N1CCN(c2ncccn2)CC1
Second: O=C(c1nc(-c2cccs2)cs1)N1CCN(c2ccccc2)CC1
The RP-LC retention time of the first is lower: 774 s for the first, 1130 s for the second.

Going from `Cc1ccc(CNC(=O)c2cc(C(C)C)n3nccc3n2)cc1` to `Cc1cccc(-c2nc(Cn3nnc(C(=O)NCc4ccc(F)c(Cl)c4)c3C)c(C)o2)c1`, the RP-LC retention time falls from 1250 s to 1180 s.

Compared with `Cc1nnc2n1CCC(NC(=O)c1cscn1)CC2` (centres undefined), `CCc1nc(-c2csc(S(=O)(=O)N3CCC(C(=O)Nc4ccc(C)c(F)c4)CC3)c2)no1` is higher in RP-LC retention time: 542 s for the first, 1060 s for the second.

Compared with `O=C(CCc1c(-c2ccccc2)nc2ccccn12)NC1CC1`, `CCOc1nc2ccccc2nc1N1CCCC(C(=O)NCc2ccccc2)C1` (centres undefined) is higher in RP-LC retention time: 561 s for the first, 1090 s for the second.

First: COc1cc(NC(=O)NCCc2nc3cccnc3n2C2CCCC2)cc(OC)c1
Second: COc1ccc(C(=O)Nc2cccn3c(C4CCC4)nnc23)cc1F
The RP-LC retention time of the first is lower: 704 s for the first, 769 s for the second.

First: O=C(CCn1c(N2CCCC2)nc2ccsc2c1=O)NCc1ccc(F)cc1F
Second: O=C(NCc1cccs1)C1CCN(c2nc3ccc(Cl)cc3[nH]2)CC1
The RP-LC retention time of the first is higher: 779 s for the first, 644 s for the second.

First: Cc1ccc(CNC(=O)C2CCN(c3cnc(N4CCCC4)nc3)CC2)cc1C
Second: O=C(NCCCN1CCCCCC1)C1CCCN(c2nc3cccnc3s2)C1 (centres undefined)
The RP-LC retention time of the first is higher: 716 s for the first, 595 s for the second.

First: CCOCCn1c(=O)c2c(nc3n2CCCCN3c2ccc(OCC)cc2)n(C)c1=O
Second: CCc1ccc(CNC(=O)c2ccc3c(c2)N(C)C(=O)C2CCCCN32)cc1 (centres undefined)
The RP-LC retention time of the first is higher: 906 s for the first, 663 s for the second.

First: O=S(=O)(c1ccc(F)cc1)N1CCCC(c2nnnn2-c2ccccc2)C1 (centres undefined)
Second: O=C(c1ccccc1Br)N1CCN(c2cc(-c3ccc(F)cc3)[nH]n2)CC1
The RP-LC retention time of the first is higher: 934 s for the first, 824 s for the second.

Going from `CC(=O)OCC(=O)[C@@]1(O)CCC2C3CCC4=CC(=O)CC[C@]4(C)C3=CC[C@@]21C` (some centres undefined) to `COCC1(O)CCOC2(CCN(Cc3ccc(C)c(C)c3)CC2)C1` (centres undefined), the RP-LC retention time falls from 776 s to 627 s.

Compared with `CCOc1cccc(-c2noc(Cn3ccn4nc(-c5cccc(OC)c5)cc4c3=O)n2)c1`, `COC(=O)c1ccc(-c2nc3cnccn3c2Nc2ccc(C)cc2C)cc1` is higher in RP-LC retention time: 770 s for the first, 1010 s for the second.

Going from `CCn1cc(CCN2CCN(S(=O)(=O)c3ccc(C)cc3)CC2)c2cccnc21` to `Cc1[nH]nc(-c2ccc(S(=O)(=O)N3CCN(c4ccccn4)CC3)s2)c1C`, the RP-LC retention time rises from 652 s to 662 s.

First: COc1ccc(C2C(C(=O)NC(C)C)c3cc(OC)c(OC)cc3C(=O)N2C)cc1OC (centres undefined)
Second: COc1ccc(NC(=O)N2CCN(Cc3nc4cc(Cl)ccc4o3)CC2)cc1OC
The RP-LC retention time of the first is lower: 662 s for the first, 686 s for the second.

Compared with `Cc1ccc(NC(=O)N2CCC(N3CCN(Cc4ccccc4)C3=O)CC2)cc1C`, `CC1CCN(S(=O)(=O)c2nn(Cc3ccccc3)cc2C(=O)O)CC1` is higher in RP-LC retention time: 843 s for the first, 882 s for the second.

Compared with `O=C(CC1CCCCC1)NC(Cc1ccccc1)C(=O)N1CCN(c2ccccn2)CC1` (centres undefined), `CCOC(=O)c1nc(NCC2CCN(Cc3ccccc3F)CC2)c2ccccc2n1` is lower in RP-LC retention time: 695 s for the first, 598 s for the second.

Compared with `O=C(Cn1cc(-c2nnc(-c3ccco3)o2)c2ccccc21)N1CCCC1`, `CC(=O)Nc1cccc(-n2cc3c(c2-c2ccccc2Cl)c(=O)n(C)c(=O)n3C)c1` is higher in RP-LC retention time: 724 s for the first, 768 s for the second.

First: COCCC(=O)N1CC2CN(S(=O)(=O)c3ccc(C)cc3)CC(C1)O2
Second: CC(C)NC(=O)C1CCCCN1S(=O)(=O)c1ccc(Br)cc1 (centres undefined)
The RP-LC retention time of the first is lower: 684 s for the first, 969 s for the second.

First: OCCCCc1nccc2c1[nH]c1ccccc12
Second: CCC(C(=O)NCCc1cnc[nH]1)n1c2ccccc2c2cnn(C)c(=O)c21 (centres undefined)
The RP-LC retention time of the first is higher: 628 s for the first, 603 s for the second.

Going from `CC(C)NC(=O)CN1C(=O)C2CCCCN2c2ccc(S(=O)(=O)N(C)C)cc21` (centres undefined) to `CCOC(=O)c1ccc(N2C(=O)Cn3cccc3C2C(=O)NC2CCCCC2C)cc1` (centres undefined), the RP-LC retention time rises from 781 s to 994 s.
